pIC50: −log10 of the molar value.
Target: bovine cardiac myosin (Bos taurus (Bovine), UniProt Q9BE39)
Test: Myosin inhibitory potency: PK/LDH-coupled ATPase assay on bovine skinned cardiac myofibrils
Type: biochemical
Settings: pCa=6.25, 50 μM ATP, 25° C., read-out: myosin inhibition activity IC50
Method: The average rates of ATPase inhibition, and the IC50 values are determined by Victor Nivo multimode plate reader (PerkinElmer, USA).
As to the assays background, a biochemical assay couples the ATPase activity of bovine cardiac myosin to an enzymatic coupling system consisting of pyruvate kinase and lactate dehydrogenase (PK/LDH) and monitoring the absorbance decrease of NADH (at 340 nm) as a function of time to measure the inhibitory ability of small molecule agents. In the assay, PK converts ADP (Adenosine diphosphate) to ATP (adenosine triphosphate) by converting PEP (phosphoenolpyruvate) to pyruvate. Pyruvate is then converted to lactate by LDH by converting NADH (nicotinamide adenine dinucleotide) to NAD (oxidized nicotinamide adenine dinucleotide).
In our experiments, bovine skinned cardiac myofibrils were isolated from the frozen bovine left ventricle as myosin's source in the ATPase assay. The calcium concentration that achieves a 50% (pCa50 or pCa=6.25) activation of the myofibril system was chosen as the final condition for assessing the activation activity according to the literature (DOI: 10.1074/jbc.M117.776815). Myofibrils ATPase activity was measured in a buffered solution containing 12 mM PIPES (piperazine-N, N′-bis(2-ethane sulfonic acid) and 2 mM magnesium chloride at pH 6.8 (PM12 buffer). Final assay conditions were 1 mg/mL of bovine cardiac myofibrils, 1:20 of stock PK/LDH (Sigma-Aldrich, Cat No. P0294-5X5ML), 50 μM ATP, 1 mM DTT (dithiothreitol), 0.75 mM NADH, 1.5 mM PEP at pCa50 (pCa=6.25). Compounds were dissolved in DMSO (dimethyl sulfoxide). Serial dilution of compounds was created such that the final desired concentration of compound would be achieved in a volume of 150 μL with a fixed DMSO concentration of 2% (v/v). 75 μL of a solution containing bovine cardiac myofibrils, PK/LDH, and calcium were added to a 96 well plate for a 7 point dose-response. In some circumstances, 10 point-response was used to repeat the ATPase assays on compounds of interest. Compounds were added to the myofibrils solution and incubated for 5 minutes. The enzymatic reaction was started with the addition of 75 μL of a solution containing ATP, PEP, NADH, compounds, and calcium. The ATPase activity was measured by reading absorbance at 340 nm in a PerkinElmer Victor Nivo plate reader at 25° C. in kinetic mode for 15 minutes using clear bottom plates. The slopes of the absorbance changes as a function of time for the first 10 minutes were normalized to slopes on the control wells containing all reagents, including DMSO, but without compounds. This normalized rate was then plotted as a function of small molecule concentration in GraphPad prism 9. The data were fitted to a four-parameter fit, and IC50 was calculated using Graphpad Prism 9.

bovine cardiac myosin, sequence (Q9BE39 whole entry): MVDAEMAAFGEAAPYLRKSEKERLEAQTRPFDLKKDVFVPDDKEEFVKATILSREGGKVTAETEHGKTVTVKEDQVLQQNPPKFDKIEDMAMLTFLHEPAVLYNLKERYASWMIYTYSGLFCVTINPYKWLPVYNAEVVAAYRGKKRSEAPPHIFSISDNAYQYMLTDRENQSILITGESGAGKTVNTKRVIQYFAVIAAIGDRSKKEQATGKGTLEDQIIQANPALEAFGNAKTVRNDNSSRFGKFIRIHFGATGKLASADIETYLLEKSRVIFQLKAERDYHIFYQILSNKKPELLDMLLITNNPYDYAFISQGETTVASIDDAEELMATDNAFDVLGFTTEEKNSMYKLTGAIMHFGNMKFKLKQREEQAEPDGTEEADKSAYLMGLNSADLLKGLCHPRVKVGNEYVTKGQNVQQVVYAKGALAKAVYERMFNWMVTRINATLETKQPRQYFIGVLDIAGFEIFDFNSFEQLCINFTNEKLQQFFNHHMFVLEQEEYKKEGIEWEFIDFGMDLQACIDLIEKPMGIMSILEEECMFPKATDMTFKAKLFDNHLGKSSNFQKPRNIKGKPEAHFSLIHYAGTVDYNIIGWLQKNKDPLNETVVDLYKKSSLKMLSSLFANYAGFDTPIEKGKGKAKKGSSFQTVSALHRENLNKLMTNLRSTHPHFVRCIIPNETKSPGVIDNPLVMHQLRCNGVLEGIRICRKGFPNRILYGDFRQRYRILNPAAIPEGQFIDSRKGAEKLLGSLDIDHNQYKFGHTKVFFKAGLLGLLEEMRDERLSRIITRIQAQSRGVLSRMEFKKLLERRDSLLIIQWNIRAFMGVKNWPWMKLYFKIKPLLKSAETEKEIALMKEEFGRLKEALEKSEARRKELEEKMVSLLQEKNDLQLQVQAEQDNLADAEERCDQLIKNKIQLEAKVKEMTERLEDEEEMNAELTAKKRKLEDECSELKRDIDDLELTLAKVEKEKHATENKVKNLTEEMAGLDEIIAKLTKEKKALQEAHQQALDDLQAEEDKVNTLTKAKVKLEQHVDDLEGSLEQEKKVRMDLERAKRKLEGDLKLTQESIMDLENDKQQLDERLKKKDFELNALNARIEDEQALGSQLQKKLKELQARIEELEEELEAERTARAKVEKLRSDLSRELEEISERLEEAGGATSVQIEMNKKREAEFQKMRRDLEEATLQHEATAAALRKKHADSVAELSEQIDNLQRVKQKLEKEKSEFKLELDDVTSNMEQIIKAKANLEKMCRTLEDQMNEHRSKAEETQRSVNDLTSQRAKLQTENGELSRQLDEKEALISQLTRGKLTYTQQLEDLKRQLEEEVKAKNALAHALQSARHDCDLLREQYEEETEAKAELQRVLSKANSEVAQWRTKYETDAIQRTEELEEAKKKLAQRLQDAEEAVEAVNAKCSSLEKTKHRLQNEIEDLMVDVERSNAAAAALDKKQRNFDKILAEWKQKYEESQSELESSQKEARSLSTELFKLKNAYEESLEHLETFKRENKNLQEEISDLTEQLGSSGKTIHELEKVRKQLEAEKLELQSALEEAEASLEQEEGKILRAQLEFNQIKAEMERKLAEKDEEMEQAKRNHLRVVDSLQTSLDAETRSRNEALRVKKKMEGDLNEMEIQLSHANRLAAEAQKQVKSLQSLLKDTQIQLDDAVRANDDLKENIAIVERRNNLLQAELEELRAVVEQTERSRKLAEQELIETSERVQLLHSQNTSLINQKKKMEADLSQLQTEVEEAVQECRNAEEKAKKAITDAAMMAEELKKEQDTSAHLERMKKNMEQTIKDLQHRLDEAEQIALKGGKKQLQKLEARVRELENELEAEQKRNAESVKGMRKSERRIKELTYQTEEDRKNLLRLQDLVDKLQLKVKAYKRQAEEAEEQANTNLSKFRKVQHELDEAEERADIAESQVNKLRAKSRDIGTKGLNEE
bovine cardiac myosin, sequence (P85100 whole entry partner): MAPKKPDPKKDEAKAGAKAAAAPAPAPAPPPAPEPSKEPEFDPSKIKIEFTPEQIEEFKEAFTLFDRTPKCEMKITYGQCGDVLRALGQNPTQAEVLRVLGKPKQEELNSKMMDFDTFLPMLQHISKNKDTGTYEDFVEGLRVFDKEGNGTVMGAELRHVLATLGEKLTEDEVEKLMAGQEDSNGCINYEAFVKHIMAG
bovine cardiac myosin, sequence (Q3SZE5 whole entry partner): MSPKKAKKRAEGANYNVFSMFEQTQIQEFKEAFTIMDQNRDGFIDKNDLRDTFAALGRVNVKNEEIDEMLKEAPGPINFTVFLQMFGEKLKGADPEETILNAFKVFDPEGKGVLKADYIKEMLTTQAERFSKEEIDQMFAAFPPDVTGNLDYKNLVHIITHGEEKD

Row | pIC50 | Structure (SMILES)
1 | 5.32 | O=c1nc(NC(CF)c2ccccc2)[nH]c(=O)n1C1CCCCC1 (stereo not shown) [Example 142]
2 | 5.12 | O=c1nc(NC(c2ccccc2)C(F)F)[nH]c(=O)n1C1CCOCC1 (stereo not shown) [Example 143]
3 | 5.42 | CC(Nc1nc(=O)n(C2CCN(C(=O)OC(C)(C)C)CC2)c(=O)[nH]1)c1ccc(C(F)(F)F)cc1 (stereo not shown) [Example 145]
4 | 5.26 | Cc1cccc(C(C)Nc2nc(=O)n(C3CCN(C(=O)OC(C)(C)C)CC3)c(=O)[nH]2)c1 (stereo not shown) [Example 146]
5 | 5.94 | CC(Nc1nc(=O)n(C2CCOCC2)c(=O)[nH]1)c1ccc2c(c1)OC(F)(F)O2 (stereo not shown) [Example 148]
6 | 5.26 | O=c1nc(NC2CCc3ccccc32)[nH]c(=O)n1C1CCOCC1 (stereo not shown) [Example 149]
7 | 5.18 | COc1ccccc1[C@H](C)Nc1nc(=O)n(C2CCOCC2)c(=O)[nH]1 [Example 150]
8 | 5.75 | C[C@H](Nc1nc(=O)n(C2CCOCC2)c(=O)[nH]1)c1cc(Cl)cc(Cl)c1 [Example 151]
9 | 5.91 | Cc1ccc([C@H](C)Nc2nc(=O)n(C3CCOCC3)c(=O)[nH]2)cc1C [Example 153]
10 | 6.43 | C[C@H](Nc1nc(=O)n(C2CCOCC2)c(=O)[nH]1)c1cccc(Cl)c1 [Example 154]
11 | 6.00 | C[C@H](Nc1nc(=O)n(C2CCOCC2)c(=O)[nH]1)c1ccc(C(F)F)cc1 [Example 157]
12 | 6.28 | C[C@H](Nc1nc(=O)n(C2CCOCC2)c(=O)[nH]1)c1ccc(F)c(Br)c1 [Example 158]
13 | 6.33 | C[C@H](Nc1nc(=O)n(C2CCOCC2)c(=O)[nH]1)c1ccccc1Cl [Example 159]
14 | 5.80 | C[C@H](Nc1nc(=O)n(C2CCOCC2)c(=O)[nH]1)c1ccc(C(C)(C)C)cc1 [Example 160]
15 | 5.98 | Cc1ccc([C@H](C)Nc2nc(=O)n(C3CCOCC3)c(=O)[nH]2)cc1F [Example 161]
16 | 5.87 | C[C@H](Nc1nc(=O)n(C2CCOCC2)c(=O)[nH]1)c1ccc(F)c(F)c1 [Example 164]
17 | 5.27 | C[C@H](Nc1nc(=O)n(C2CCOCC2)c(=O)[nH]1)c1ccc(Cl)c(F)c1 [Example 166]
18 | 5.84 | C[C@H](Nc1nc(=O)n(C2CCOCC2)c(=O)[nH]1)c1ccc(C#N)cc1 [Example 169]

The next lines start with the compound.

Row | Structure (SMILES) | pIC50
19 | CC(Nc1nc(=O)n(C(C)C)c(=O)[nH]1)C1CCC(F)(F)CC1 (stereo not shown) [Example 66] | 4.99
20 | CC(C)n1c(=O)nc(NC(C2CCCCC2)C2CC2)[nH]c1=O (stereo not shown) [Example 69] | 5.07
21 | CC[C@H](Nc1nc(=O)n(C(C)C)c(=O)[nH]1)C1CCCCC1 [Example 70] | 5.28
22 | O=c1nc(NC(C2CCCCC2)C(F)(F)F)[nH]c(=O)n1C1CCOCC1 (stereo not shown) [Example 75] | 5.21
23 | C[C@H](Nc1nc(=O)n(C2CCCC2)c(=O)[nH]1)C1CCCCC1 [Example 78] | 5.31
24 | CO[C@H]1CC[C@@H](n2c(=O)nc(N[C@@H](C)C3CCCCC3)[nH]c2=O)CC1 [Example 84] | 5.24
25 | C[C@H](Nc1nc(=O)n([C@H]2CC[C@@H](F)CC2)c(=O)[nH]1)C1CCCCC1 [Example 86] | 5.74
26 | C[C@H](Nc1nc(=O)n([C@H]2CC[C@H](F)CC2)c(=O)[nH]1)C1CCCCC1 [Example 87] | 6.35
27 | C[C@H](Nc1nc(=O)n(C2(C)CCC2)c(=O)[nH]1)C1CCCCC1 [Example 89] | 5.06
28 | C[C@H](Nc1nc(=O)n(C2(C)CCCC2)c(=O)[nH]1)C1CCCCC1 [Example 90] | 5.06
29 | Cc1cccc([C@H](C)Nc2nc(=O)n(C3CCn4nccc4C3)c(=O)[nH]2)c1 (stereo partly shown) [Example 92] | 5.13
30 | Cc1cccc([C@H](C)Nc2nc(=O)n(C3CCCCC3)c(=O)[nH]2)c1 [Example 93] | 5.10
31 | Cc1cccc([C@H](C)Nc2nc(=O)n(C3CCCC3)c(=O)[nH]2)c1 [Example 94] | 5.76
32 | Cc1cccc([C@H](C)Nc2nc(=O)n(C3CCOC3)c(=O)[nH]2)c1 (stereo partly shown) [Example 95] | 5.14
33 | Cc1cccc([C@H](C)Nc2nc(=O)n([C@H]3CC[C@@H](NC(=O)OC(C)(C)C)CC3)c(=O)[nH]2)c1 [Example 96] | 5.34
34 | Cc1cccc([C@H](C)Nc2nc(=O)n([C@H]3CC[C@H](NC(=O)OC(C)(C)C)CC3)c(=O)[nH]2)c1 [Example 97] | 5.89
35 | Cc1cccc([C@H](C)Nc2nc(=O)n(C3CCOCC3(C)C)c(=O)[nH]2)c1 (stereo partly shown) [Example 99] | 5.03
36 | Cc1cccc([C@H](C)Nc2nc(=O)n(C3CCOC(C)C3)c(=O)[nH]2)c1 (stereo partly shown) [Example 100] | 5.27
37 | CC(Nc1nc(=O)n(C2CCOCC2)c(=O)[nH]1)c1ccccc1O (stereo not shown) [Example 101] | 4.97
38 | CC(Nc1nc(=O)n(C2CCOCC2)c(=O)[nH]1)c1ccc(O)cc1 (stereo not shown) [Example 103] | 4.85
39 | CC(Nc1nc(=O)n(C2CCOCC2)c(=O)[nH]1)C1CCCCCC1 (stereo not shown) [Example 109] | 5.34
40 | CC(Nc1nc(=O)n(C2CCOCC2)c(=O)[nH]1)C1CC2(CCC2)C1 (stereo not shown) [Example 110] | 5.05

Row | Structure (SMILES) | pIC50
41 | O=c1nc(NCCC2CCCCC2)[nH]c(=O)n1C1CCOCC1 [Example 114] | 4.85
42 | CC[C@H](Nc1nc(=O)n(C2CCOCC2)c(=O)[nH]1)C1CCCCC1 [Example 116] | 5.40
43 | CC(Nc1nc(=O)n(C2CCOCC2)c(=O)[nH]1)C1CCC(F)(F)CC1 (stereo not shown) [Example 118] | 4.89
44 | CC(Nc1nc(=O)n(C2CCOCC2)c(=O)[nH]1)c1ccccc1Br (stereo not shown) [Example 119] | 5.47
45 | CC(Nc1nc(=O)n(C2CCOCC2)c(=O)[nH]1)c1cccc(Br)c1 (stereo not shown) [Example 120] | 5.80
46 | CC(Nc1nc(=O)n(C2CCOCC2)c(=O)[nH]1)c1ccccc1F (stereo not shown) [Example 121] | 5.58
47 | CC(Nc1nc(=O)n(C2CCOCC2)c(=O)[nH]1)c1cccc(F)c1 (stereo not shown) [Example 122] | 5.46
48 | C[C@H](Nc1nc(=O)n(C2CCOCC2)c(=O)[nH]1)c1cccc(F)c1 [Example 124] | 5.76
49 | CC(Nc1nc(=O)n(C2CCOCC2)c(=O)[nH]1)c1ccc(F)cc1 (stereo not shown) [Example 125] | 5.08
50 | CC(Nc1nc(=O)n(C2CCOCC2)c(=O)[nH]1)c1cc(F)ccc1F (stereo not shown) [Example 127] | 5.74
51 | CC(Nc1nc(=O)n(C2CCOCC2)c(=O)[nH]1)c1ccc2c(c1)OCO2 (stereo not shown) [Example 128] | 5.73
52 | CC(Nc1nc(=O)n(C2CCOCC2)c(=O)[nH]1)c1ccccc1C(F)(F)F (stereo not shown) [Example 129] | 6.64
53 | CC(Nc1nc(=O)n(C2CCOCC2)c(=O)[nH]1)c1cccc(C(F)(F)F)c1 (stereo not shown) [Example 130] | 5.33
54 | CC(Nc1nc(=O)n(C2CCOCC2)c(=O)[nH]1)c1ccc(C(F)(F)F)cc1 (stereo not shown) [Example 131] | 5.60
55 | Cc1cccc(C(C)Nc2nc(=O)n(C3CCOCC3)c(=O)[nH]2)c1 (stereo not shown) [Example 133] | 6.62
56 | Cc1ccc(C(C)Nc2nc(=O)n(C3CCOCC3)c(=O)[nH]2)cc1 (stereo not shown) [Example 134] | 5.44
57 | CC(Nc1nc(=O)n(C2CCOCC2)c(=O)[nH]1)c1cccc(C2CC2)c1 (stereo not shown) [Example 136] | 5.30
58 | CC(Nc1nc(=O)n(C2CCOCC2)c(=O)[nH]1)c1ccc(C2CC2)cc1 (stereo not shown) [Example 137] | 5.31
59 | CC(Nc1nc(=O)n(C2CCOCC2)c(=O)[nH]1)c1cccc(CO)c1 (stereo not shown) [Example 139] | 5.18
60 | CC(Nc1nc(=O)n(C2CCOCC2)c(=O)[nH]1)c1ccc(CO)cc1 (stereo not shown) [Example 140] | 4.91
61 | C=Cc1ccc(C(C)Nc2nc(=O)n(C3CCOCC3)c(=O)[nH]2)cc1 (stereo not shown) [Example 141] | 5.17

— patent publication US20240262804A1, “NITROGEN-CONTAINING HETEROCYCLIC KETONES, PREPARATION METHODS AND MEDICINAL USES THEREOF” (Hansoh Bio LLC, priority 2021, published 2024)
